For series [1], the system named is human fetal lung fibroblasts. Briefly: Custom tiling array RNA hybridization (ncRNA expression). The format is cell-based. The settings on record: doxorubicin-treated human fetal lung fibroblasts; tiling array and qRT-PCR; of 216 ncRNAs. An excerpt:
A custom tiling array (Roche NimbleGen) was designed at 5 bp resolution across 25 kb of the 9p21 region (which encompasses CDKN2A, P14ARF and CDKN2B), as well as from 10 kb upstream to 2 kb downstream of each TSS from 53 other cell-cycle genes, including those encoding cyclins, CDKs and CDKIs (Table 1). In addition, the HOXA and HOXD loci were placed on the array as a control. Briefly, RNA was amplified (MessageAmp Kit, Ambion), reverse transcribed (RETROscript Kit, Ambion), labeled and hybridized according to the standard NimbleGen protocol.
Robust multichip average normalized single channel data from each array were subjected to peak calling using the NimbleScan program (Roche NimbleGen) with a window size of 50. Peaks with a peak score greater than ten were considered significant transcriptional units. […]
A peak calling algorithm searched for statistically significant signals above background and detected contiguous regions (peaks) of at least 50 bp. […] Averaging the signal intensity across all probes in a peak produced a quantitative estimate of transcript abundance. Despite possible 3′ bias caused by polyadenylated RNA selection, our procedure detected exon 1 transcription from the majority of cell-cycle coding genes (41 of the 56), showing that this custom tiling array can detect previously reported transcribed regions. […]

Series [2] relates to human fetal lung fibroblasts (FL3). Briefly: Quantitative RT-PCR of lncRNA expression, doxorubicin time course. It counts as cell-based. The settings on record: 24 hour time course. On the procedure:
Total RNA was extracted from cells using the TRIzol reagent (Invitrogen) and the RNeasy Mini Kit (Qiagen), and genomic DNA was eliminated using TURBO DNA-free (Ambion). RT-PCR using 50-250 ng of total RNA was performed using the One-Step RT-PCR Master Mix (Applied Biosystems) using TaqMan Gene Expression Assays and normalized to GAPDH. Strand-specific RT-PCR for PANDA was performed using the One-Step RT-PCR Master Mix SYBR Green (Stratagene)).
A panel of TaqMan custom ncRNA assays was developed targeting 60 of the 219 new transcribed regions using the ‘single-exon’ design mode. The transcript specificity and genome specificity of all TaqMan assays were verified using a position-specific alignment matrix to predict potential cross reactivity between designed assays and genome-wide nontarget transcripts or genomic sequences. […]
Our co-expression maps predicted associations of several lncRNAs with DNA damage response pathways (FIG. 3C and FIG. 11). […] In order to confirm whether these lncRNAs may be responsive to DNA damage, we measured the expression changes of 60 lncRNAs predicted in the DNA damage pathway (as well as upst:CDKN1A:−800) by quantitative RT-PCR in human fetal lung fibroblasts treated with doxorubicin over a 24 hour time course. […]

For series [3] the test system is unchanged. As to the kind of experiment: TUNEL assay. It counts as cell-based. The settings on record: FL3 cells exposed to control siRNA. On the procedure:
TUNEL assays were performed using the in situ Cell Death Detection Kit, TMR Red (Roche). Human fetal lung fibroblasts were cultured on chamber slides (Lab-Tek), treated with 200 ng/ml doxorubicin (Sigma) for 24 hours, fixed with methanol at −20° C. for 10 minutes and incubated with the TUNEL labeling mixture for 1 hour at 37° C. Slides were then washed with PBS and mounted in Prolong Gold antifade reagent with DAPI (Invitrogen) and imaged at 20× magnification.

Another series deals with T1, EZH2 (Homo sapiens, UniProt Q15910).
T1 construct: RNA chromatography of PANDA from doxorubicin-treated FL3 cell lysates; endogenous in cells; host or cells: doxorubicin-treated human fetal lung fibroblasts (FL3)
As to the kind of experiment: RNAse mediated RNA chromatography. It counts as binding. Conditions: lysates of doxorubicin-treated human fibroblasts. As to the method:
(§1) RNAse mediated RNA chromatography (Michlewski et al. (2010) RNA 16:1673-1678, herein incorporated by reference in its entirety) was performed as previously described with the following modifications: 6 pmols of RNA (PANDA or a 1.2-kb fragment of LacZ) were used per reaction. RNA was folded (90° C. for 2 minutes, ice for 2 minutes), supplied with RNA structure buffer (Ambion) and shifted to room temperature (22-25° C.) for 20 minutes before conjugation to beads. RNAse digestion was performed with 5 μl of RNase A/T1 cocktail (Ambion) and 2 μl of RNase V1 (Ambion). Cellular lysates were prepared as follows: 10 million doxorubicin treated cells (16 hours) were incubated in 200 μl PBS, 600 μl H20 and 200 μl nuclear lysis buffer (1.28 M sucrose; 40 mM Tris-HCl pH 7.5; 20 mM MgCl2; 4% Triton X-100) on ice for 20 minutes. Nuclei were pelleted by centrifugation at 2,500 g for 15 minutes. The nuclear pellet was resuspended in 1 ml RIP buffer (150 mM KCl, 25 mM Tris pH 7.4, 0.5 mM DTT, 0.5% NP40, 1 mM PMSF and protease inhibitor (Roche Complete Protease Inhibitor Cocktail Tablets)). Resuspended nuclei were sheared using a motorized douncer for 5 seconds. Nuclear membrane and debris were pelleted by centrifugation at 18,000 g for 10 minutes.
(§2) Core promoters of cell death genes downstream of p53 are distinguished from other p53 target genes by the binding site for the transcription factor NF-YA (Morachis et al. (2010) Genes Dev. 24:135-147), and we reasoned that PANDA may affect NF-YA function. […] NF-YA is a nuclear transcription factor that activates the p53-responsive promoter of FAS upon DNA damage (Morachis et al. (2010) Genes Dev. 24:135-147). […] Thus, PANDA binding to NF-YA may evict or prevent NF-YA binding to chromatin. […] CDKN1A mRNA produces p21 to mediate arrest, whereas PANDA impedes NF-YA activation of apoptotic gene expression program (FIG. 8).

For another series, the target named is T2, LSD1 (Homo sapiens, UniProt O60341).
T2 construct: RNA chromatography of PANDA from doxorubicin-treated FL3 cell lysates; endogenous in cells; host or cells: doxorubicin-treated human fetal lung fibroblasts (FL3)
As to the kind of experiment: RNAse mediated RNA chromatography. It counts as binding. The settings on record: lysates of doxorubicin-treated human fibroblasts. As to the method: as §1, §2

Series [4] addresses T3, NF-YA (Homo sapiens, UniProt P23511).
T3 construct: RNA chromatography of PANDA from doxorubicin-treated FL3 cell lysates; endogenous in cells; host or cells: doxorubicin-treated human fetal lung fibroblasts (FL3)
As to the kind of experiment: RNAse mediated RNA chromatography. It counts as binding. Conditions: in vitro transcribed RNA; lysates of doxorubicin-treated human fibroblasts. As to the method: as §1, §2

The target of a further series is T4, p21 (Homo sapiens, UniProt P38936).
T4 construct: RNA chromatography of PANDA from doxorubicin-treated FL3 cell lysates; endogenous in cells; host or cells: doxorubicin-treated human fetal lung fibroblasts (FL3)
As to the kind of experiment: RNAse mediated RNA chromatography. The format is binding. The settings on record: lysates of doxorubicin-treated human fibroblasts. As to the method: as §1, §2

The target of series [5] is T3, NF-YA. Briefly: RNA immunoprecipitation of NF-YA. The format is binding. The settings on record: doxorubicin-treated primary human lung fibroblasts, qRT-PCR. On the procedure:
Ten million cells were treated with 200 ng/ml doxorubicin for 16 hours, trypsinized and crosslinked with 1% formaldehyde for 10 minutes, followed by the addition of 0.125 M glycine for 5 minutes. After two PBS washes, cells were lysed with 2× volume of Buffer A (10 mM HEPES pH 7.5, 1.5 mM MgCl2, 10 mM KCl, 0.5 mM DTT, 1 mM PMSF) for 15 minutes on ice at 150 r.p.m. NP-40 was added to a final concentration of 0.25% for 5 minutes on ice. Lysates were centrifuged for 3 minutes at 2,000 r.p.m., and the supernatant (cytosol) was collected. Next, an equal volume of Buffer C as that used of Buffer A was added to the pellet for 20 minutes with frequent vortex (20 mM HEPES pH 7.5, 10% glycerol, 0.42 M KCl, 4 mM MgCl2, 0.5 mM DTT, and 1 mM PMSF). Nuclear lysates were dounced for 5 seconds using a motorized pestle and sonicated for 7 minutes using a Diagenode Sonicator (30 seconds on, 30 seconds off, power setting H). Nuclear and cytoplasmic lysates were combined and centrifuged for 15 minutes at 13,000 r.p.m. Supernatants were transferred into micro spin columns (Pierce 89879), and 2 μg of antibody was added and incubated overnight. We washed 10 μl of Protein A/G UltraLink Resin (Pierce 53132) three times with RIP wash buffer (50 mM TrisHcl pH 7.9, 10% glycerol, 100 mM KCl, 5 mM MgCl2, 10 mM B-me and 0.1% NP-40) and added it to the immunoprecipitation reaction for 1 hour at 4° C. […]

T3 sequence (P23511 whole entry): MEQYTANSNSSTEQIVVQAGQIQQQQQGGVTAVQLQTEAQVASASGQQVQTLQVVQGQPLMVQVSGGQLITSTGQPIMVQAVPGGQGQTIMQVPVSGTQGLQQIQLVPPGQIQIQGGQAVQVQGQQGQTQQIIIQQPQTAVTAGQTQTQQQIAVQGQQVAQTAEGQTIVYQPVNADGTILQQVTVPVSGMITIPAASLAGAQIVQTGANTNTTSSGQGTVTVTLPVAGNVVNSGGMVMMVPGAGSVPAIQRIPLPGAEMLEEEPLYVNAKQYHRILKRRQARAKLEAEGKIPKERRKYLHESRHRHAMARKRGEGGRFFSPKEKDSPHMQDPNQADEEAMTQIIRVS
T1 sequence (Q15910 whole entry): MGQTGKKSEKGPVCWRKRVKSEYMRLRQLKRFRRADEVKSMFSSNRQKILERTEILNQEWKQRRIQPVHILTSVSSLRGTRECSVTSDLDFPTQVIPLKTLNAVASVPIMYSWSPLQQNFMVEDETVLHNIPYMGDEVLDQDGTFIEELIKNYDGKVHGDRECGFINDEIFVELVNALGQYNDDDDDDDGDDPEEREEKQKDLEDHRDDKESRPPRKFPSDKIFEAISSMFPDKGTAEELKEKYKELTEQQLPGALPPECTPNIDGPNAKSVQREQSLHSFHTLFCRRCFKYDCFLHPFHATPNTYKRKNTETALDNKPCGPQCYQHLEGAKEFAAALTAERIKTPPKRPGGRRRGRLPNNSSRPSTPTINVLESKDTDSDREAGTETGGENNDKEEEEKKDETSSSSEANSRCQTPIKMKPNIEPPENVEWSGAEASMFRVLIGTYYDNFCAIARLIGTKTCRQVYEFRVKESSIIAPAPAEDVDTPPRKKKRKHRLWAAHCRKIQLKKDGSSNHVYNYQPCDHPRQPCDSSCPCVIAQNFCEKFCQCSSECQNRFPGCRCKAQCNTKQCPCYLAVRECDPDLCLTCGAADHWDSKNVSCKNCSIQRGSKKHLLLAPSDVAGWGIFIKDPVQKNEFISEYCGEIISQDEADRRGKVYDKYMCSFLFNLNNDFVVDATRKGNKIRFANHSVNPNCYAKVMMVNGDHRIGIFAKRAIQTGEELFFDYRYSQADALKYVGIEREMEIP
T1 sequence (O75530 whole entry partner): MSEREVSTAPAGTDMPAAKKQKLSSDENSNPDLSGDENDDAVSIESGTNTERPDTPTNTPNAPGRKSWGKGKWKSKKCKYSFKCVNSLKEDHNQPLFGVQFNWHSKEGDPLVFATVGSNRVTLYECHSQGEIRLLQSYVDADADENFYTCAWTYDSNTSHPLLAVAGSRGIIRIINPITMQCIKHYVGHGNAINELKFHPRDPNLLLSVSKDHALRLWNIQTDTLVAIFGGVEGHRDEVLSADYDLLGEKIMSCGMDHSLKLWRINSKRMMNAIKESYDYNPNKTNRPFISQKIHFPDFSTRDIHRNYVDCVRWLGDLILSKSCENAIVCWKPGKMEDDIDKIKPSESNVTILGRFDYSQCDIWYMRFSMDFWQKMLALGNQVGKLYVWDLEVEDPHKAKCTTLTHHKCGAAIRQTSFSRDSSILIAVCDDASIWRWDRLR
T1 sequence (Q15022 whole entry partner): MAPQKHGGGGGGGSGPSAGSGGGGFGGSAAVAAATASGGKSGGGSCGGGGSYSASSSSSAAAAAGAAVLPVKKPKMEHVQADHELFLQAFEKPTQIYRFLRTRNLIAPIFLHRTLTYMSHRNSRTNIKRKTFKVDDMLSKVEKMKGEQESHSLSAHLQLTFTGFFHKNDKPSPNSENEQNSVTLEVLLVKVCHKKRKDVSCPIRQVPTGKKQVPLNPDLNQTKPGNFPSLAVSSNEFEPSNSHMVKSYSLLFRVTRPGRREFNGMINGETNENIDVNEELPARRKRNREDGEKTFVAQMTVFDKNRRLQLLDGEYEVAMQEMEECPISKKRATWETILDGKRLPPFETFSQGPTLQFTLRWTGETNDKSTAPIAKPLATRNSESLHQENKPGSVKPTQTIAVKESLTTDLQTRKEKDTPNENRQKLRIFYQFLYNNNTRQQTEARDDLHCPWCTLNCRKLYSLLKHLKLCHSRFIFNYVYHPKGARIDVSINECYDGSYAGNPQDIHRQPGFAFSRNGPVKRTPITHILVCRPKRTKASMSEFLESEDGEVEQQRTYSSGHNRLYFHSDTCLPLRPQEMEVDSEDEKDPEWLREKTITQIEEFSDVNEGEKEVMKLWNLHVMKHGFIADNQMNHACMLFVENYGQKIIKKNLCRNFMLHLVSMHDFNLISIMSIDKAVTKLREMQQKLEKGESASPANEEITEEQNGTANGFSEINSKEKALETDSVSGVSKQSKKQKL
T4 sequence (P38936 whole entry): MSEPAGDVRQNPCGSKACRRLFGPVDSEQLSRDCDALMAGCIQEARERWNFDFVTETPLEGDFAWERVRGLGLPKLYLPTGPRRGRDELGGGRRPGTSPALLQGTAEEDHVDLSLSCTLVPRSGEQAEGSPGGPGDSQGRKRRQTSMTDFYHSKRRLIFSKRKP

Take `COc1cccc2c1C(=O)c1c(O)c3c(c(O)c1C2=O)C[C@@](O)(C(=O)CO)C[C@@H]3O[C@H]1C[C@H](N)[C@H](O)[C@H](C)O1` [doxorubicin]: the “ncRNAs with at least two-fold change” value in series [1] is listed as 12 of the 216. For the same compound, in series [2], the “expression of lncRNAs surrounding the CDKN1A TSS” value is listed as “all five of the tested lncRNAs surrounding the CDKN1A TSS were induced” and the “induction of Upst:CDKN1A:−4,845 (PANDA) upon DNA damage” value is “up to 40 fold”. Further, in series [3], the “apoptosis as measured by TUNEL” value is given as “little to no apoptosis”.
In the case of “PANDA: P21-Associated NcRNA, DNA damage Activated; 1.5-kb long non-coding RNA”, the “retrieval of EZH2” value in the series with EZH2 was “did not retrieve”. For the same compound, in the series with LSD1, the “retrieval of LSD1” value is “did not retrieve”. In addition, in the series with NF-YA [4], the “retrieval of NF-YA from cellular lysates” value is on record as “specifically retrieved”. In the series with p21, the “retrieval of p21” value is recorded as “did not retrieve”. In addition, in the series with NF-YA [5], the “retrieval of endogenous PANDA by immunoprecipitation of NF-YA” value is “specifically retrieved”.

For the origin of these results see patent US9062351B2, “Diagnostic, prognostic and therapeutic uses of long non-coding RNAs for cancer and regenerative medicine” (The Board of Trustees of the Leland Stanford Junior …, priority 2011, dated 2015).
